Target: T1, HPK1 (Homo sapiens, UniProt Q92918)
T1 construct: A HiBiT tag was introduced by CRISPR on the N terminus of HPK1 in Jurkat cells; host or cells: Jurkat (ATCC TIB-152), monoclonal CRISPR HiBiT knock-in line
Test: HPK1 Cellular HiBiT Degradation Assay
Type: cell-based
Settings: HiBiT-tagged HPK1 Jurkat cells, 24 hours, 10 uM to 0.1 nM; Dmax = 100 minus lowest % HPK1 remaining vs DMSO vehicle
Procedure, shortened: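 Jurkat cells with CRISPR N-terminal HiBiT-tagged HPK1 were exposed to an 11-point 3.16-fold dilution series, 10 uM to 0.1 nM final, for 24 hours at 37° C./5% CO2. HPK1 was read by HiBiT lytic luminescence against DMSO as 100% and parental cells as background. Dmax is 100 minus the lowest % remaining from a four-parameter fit, with a parallel CellTiter-Glo viability check.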

T1 sequence (Q92918 whole entry): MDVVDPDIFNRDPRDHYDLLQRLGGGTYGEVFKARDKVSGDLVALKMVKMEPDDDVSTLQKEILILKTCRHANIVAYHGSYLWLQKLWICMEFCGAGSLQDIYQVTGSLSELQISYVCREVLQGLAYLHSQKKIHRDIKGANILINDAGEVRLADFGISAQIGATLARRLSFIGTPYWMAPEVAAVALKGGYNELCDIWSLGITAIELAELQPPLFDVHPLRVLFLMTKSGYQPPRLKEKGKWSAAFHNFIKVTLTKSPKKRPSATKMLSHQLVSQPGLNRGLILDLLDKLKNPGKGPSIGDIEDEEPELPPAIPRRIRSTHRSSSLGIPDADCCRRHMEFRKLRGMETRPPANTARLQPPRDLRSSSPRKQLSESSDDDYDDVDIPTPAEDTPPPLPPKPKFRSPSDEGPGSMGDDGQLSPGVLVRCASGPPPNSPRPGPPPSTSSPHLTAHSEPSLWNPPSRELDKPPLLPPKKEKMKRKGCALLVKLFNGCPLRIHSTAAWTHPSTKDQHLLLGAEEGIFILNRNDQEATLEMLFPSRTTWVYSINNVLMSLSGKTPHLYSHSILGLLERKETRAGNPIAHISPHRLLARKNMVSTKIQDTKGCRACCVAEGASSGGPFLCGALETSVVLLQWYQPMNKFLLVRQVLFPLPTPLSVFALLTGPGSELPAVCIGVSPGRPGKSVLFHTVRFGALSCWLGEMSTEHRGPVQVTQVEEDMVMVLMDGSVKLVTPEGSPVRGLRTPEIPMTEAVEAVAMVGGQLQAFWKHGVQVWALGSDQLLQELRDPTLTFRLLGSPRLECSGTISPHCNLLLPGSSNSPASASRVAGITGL

Structure (SMILES)	Dmax [%]
Cc1cc(F)c(Nc2nc(-c3ccc4c(c3)N([C@H]3C[C@@H](N5CCCCC5)C3)C(=O)C43CCN(C(=O)[C@H]4CCN(C(=O)[C@H]5CC[C@H](Nc6cccc7c6C(=O)N(C6CCC(=O)NC6=O)C7=O)CC5)C4)CC3)cc3ncn(C(C)C)c23)cc1C(=O)NC(C)C (stereo partly drawn) [Example 87, 5-((6-(1′-((3S)-1-((1R,4S)-4-((2-(2,6-dioxopiperidin-3-yl)-1,3-dioxoisoindolin-4-yl)amino)cyclohexane-1-carbonyl)pyrrolidine-3-carbonyl)-2-oxo-1-((1s,3R)-3-(piperidin-1-yl)cyclobutyl)spiro[indoline-3,4′-piperidin]-6-yl)-3-isopropyl-3H-imidazo[4,5-c]pyridin-4-yl)amino)-4-fluoro-N-isopropyl-2-methylbenzamide]	< 45
Cc1cc(F)c(Nc2nc(-c3ccc4c(c3)N([C@H]3C[C@@H](N5CCCCC5)C3)C(=O)C43CCN(C(=O)C4CCN(C(=O)[C@H]5CC[C@H](Nc6cccc7c6C(=O)N(C6CCC(=O)NC6=O)C7=O)CC5)CC4)CC3)cc3ncn(C(C)C)c23)cc1C(=O)NC(C)C (stereo partly drawn) [Example 60, 4-fluoro-2-methyl-5-{[6-(2-oxo-1′-{1-[(1R,4R)-4-({2-[2,6-dioxopiperidin-3-yl]-1,3-dioxo-2,3-dihydro-1H-isoindol-4-yl}amino)cyclohexanecarbonyl]piperidine-4-carbonyl}-1-[(1s,3s)-3-(piperidin-1-yl)cyclobutyl]-1,2-dihydrospiro[indole-3,4′-piperidin]-6-yl)-3-(propan-2-yl)-3H-imidazo[4,5-c]pyridin-4-yl]amino}-N-(propan-2-yl)benzamide]	> 65
Cc1cc(F)c(Nc2nc(-c3ccc4c(c3)N([C@H]3C[C@@H](N5CCCCC5)C3)C(=O)C43CCN(C(=O)CCCCCC(=O)N[C@H](C(=O)N4C[C@H](O)C[C@H]4C(=O)N[C@@H](C)c4ccc(-c5scnc5C)cc4)C(C)(C)C)CC3)cc3ncn(C(C)C)c23)cc1C(=O)NC(C)C [Example 7, (2S,4R)-1-((S)-2-(7-(6-(4-((2-fluoro-5-(isopropylcarbamoyl)-4-methylphenyl)amino)-3-isopropyl-3H-imidazo[4,5-c]pyridin-6-yl)-2-oxo-1-((1s,3s)-3-(piperidin-1-yl)cyclobutyl)spiro[indoline-3,4′-piperidin]-1′-yl)-7-oxoheptanamido)-3,3-dimethylbutanoyl)-4-hydroxy-N—((S)-1-(4-(4-methylthiazol-5-yl)phenyl)ethyl)pyrrolidine-2-carboxamide]	> 65
Cc1cc(F)c(Nc2nc(-c3ccc4c(c3)N([C@H]3C[C@@H](N5CCCCC5)C3)C(=O)C43CCN(C(=O)c4ccc(C(=O)N5CCN(c6ccc7c(c6)C(=O)N(C6CCC(=O)NC6=O)C7=O)CC5)cc4)CC3)cc3ncn(C(C)C)c23)cc1C(=O)NC(C)C (stereo partly drawn) [Example 78, 5-((6-(1′-(4-(4-(2-(2,6-dioxopiperidin-3-yl)-1,3-dioxoisoindolin-5-yl)piperazine-1-carbonyl)benzoyl)-2-oxo-1-((1s,3s)-3-(piperidin-1-yl)cyclobutyl)spiro[indoline-3,4′-piperidin]-6-yl)-3-isopropyl-3H-imidazo[4,5-c]pyridin-4-yl)amino)-4-fluoro-N-isopropyl-2-methylbenzamide]	45 to 65
Cc1cc(F)c(Nc2nc(-c3ccc4c(c3)N([C@H]3C[C@@H](N5CCCCC5)C3)C(=O)C43CCN(C(=O)[C@H]4CC[C@@H](C(=O)N5CCC(Oc6cccc7c6C(=O)N(C6CCC(=O)NC6=O)C7=O)CC5)CC4)CC3)cc3ncn(C(C)C)c23)cc1C(=O)NC(C)C (stereo partly drawn) [Example 96, 4-fluoro-N-isopropyl-5-[(3-isopropyl-6-{2-oxo-1-[(1s,3s)-3-(piperidin-1-yl)cyclobutyl]-1′-[(1s,4s)-4-[4-({2-[(3S)-2,6-dioxopiperidin-3-yl]-1,3-dioxoisoindol-4-yl}oxy)piperidine-1-carbonyl]cyclohexanecarbonyl]spiro[indole-3,4′-piperidin]-6-yl}imidazo[4,5-c]pyridin-4-yl)amino]-2-methylbenzamide]	45 to 65
Cc1cc(F)c(Nc2nc(-c3ccc4c(c3)N([C@H]3C[C@@H](N5CCCCC5)C3)C(=O)C43CCN(C(=O)c4ccc(N5CCN(c6cccc7c6C(=O)N(C6CCC(=O)NC6=O)C7=O)CC5)nc4)CC3)cc3ncn(C(C)C)c23)cc1C(=O)NC(C)C (stereo partly drawn) [Example 83, 5-((6-(1′-(6-(4-(2-(2,6-dioxopiperidin-3-yl)-1,3-dioxoisoindolin-4-yl)piperazin-1-yl)nicotinoyl)-2-oxo-1-((1s,3)-3-(piperidin-1-yl)cyclobutyl)spiro[indoline-3,4′-piperidin]-6-yl)-3-isopropyl-3H-imidazo[4,5-c]pyridin-4-yl)amino)-4-fluoro-N-isopropyl-2-methylbenzamide]	< 45
Cc1cc(F)c(Nc2nc(-c3ccc4c(c3)N([C@H]3C[C@@H](N5CCCCC5)C3)C(=O)C43CCN(C(=O)C4CCN(C(=O)N5CCC(Nc6cccc7c6C(=O)N(C6CCC(=O)NC6=O)C7=O)CC5)CC4)CC3)cc3ncn(C(C)C)c23)cc1C(=O)NC(C)C (stereo partly drawn) [Example 68, 5-{[6-(1′-{1-[4-({2-[2,6-dioxopiperidin-3-yl]-1,3-dioxo-2,3-dihydro-1H-isoindol-4-yl}amino)piperidine-1-carbonyl]piperidine-4-carbonyl}-2-oxo-1-[(1s,3s)-3-(piperidin-1-yl)cyclobutyl]-1,2-dihydrospiro[indole-3,4′-piperidin]-6-yl)-3-(propan-2-yl)-3H-imidazo[4,5-c]pyridin-4-yl]amino}-4-fluoro-2-methyl-N-(propan-2-yl)benzamide]	45 to 65
Cc1cc(F)c(Nc2nc(-c3ccc4c(c3)N([C@H]3C[C@@H](N5CCCCC5)C3)C(=O)C43CCN(C(=O)[C@H]4CCN(C[C@H]5CC[C@H](Nc6cccc7c6C(=O)N(C6CCC(=O)NC6=O)C7=O)CC5)C4)CC3)cc3ncn(C(C)C)c23)cc1C(=O)NC(C)C (stereo partly drawn) [Example 73, 4-fluoro-2-methyl-5-[(6-{2-oxo-1′-[(3R)-1-{[(1R,4R)-4-({2-[2,6-dioxopiperidin-3-yl]-1,3-dioxo-2,3-dihydro-1H-isoindol-4-yl}amino)cyclohexyl]methyl}pyrrolidine-3-carbonyl]-1-[(1s,3s)-3-(piperidin-1-yl)cyclobutyl]-1,2-dihydrospiro[indole-3,4′-piperidin]-6-yl}-3-(propan-2-yl)-3H-imidazo[4,5-c]pyridin-4-yl)amino]-N-(propan-2-yl)benzamide]	> 65
CC(=O)N1CCC2(CC1)C(=O)N([C@H]1C[C@@H](N3CCC[C@@H](C(=O)NCCCCCCCCCOc4cc(-c5scnc5C)ccc4CNC(=O)[C@@H]4C[C@@H](O)CN4C(=O)[C@@H](NC(=O)C4(F)CC4)C(C)(C)C)C3)C1)c1cc(-c3cc4ncn(C(C)C)c4c(Nc4cc(C(=O)NC(C)C)c(C)cc4F)n3)ccc12 [Example 17, (R)-1-((1s,3s)-3-(1′-acetyl-6-(4-((2-fluoro-5-(isopropylcarbamoyl)-4-methylphenyl)amino)-3-isopropyl-3H-imidazo[4,5-c]pyridin-6-yl)-2-oxospiro[indoline-3,4′-piperidin]-1-yl)cyclobutyl)-N-(9-(2-(((2S,4R)-1-((S)-2-(1-fluorocyclopropane-1-carboxamido)-3,3-dimethylbutanoyl)-4-hydroxypyrrolidine-2-carboxamido)methyl)-5-(4-methylthiazol-5-yl)phenoxy)nonyl)piperidine-3-carboxamide]	< 45
Cc1cc(F)c(Nc2nc(-c3ccc4c(c3)N([C@H]3C[C@@H](N5CCCCC5)C3)C(=O)C43CCN(C(=O)c4ccc(CN5CCN(c6ccc7c(c6)C(=O)N(C6CCC(=O)NC6=O)C7=O)CC5)cc4)CC3)cc3ncn(C(C)C)c23)cc1C(=O)NC(C)C (stereo partly drawn) [Example 91, 5-[(6-{1′-[4-({4-[2-(2,6-dioxopiperidin-3-yl)-1,3-dioxoisoindol-5-yl]piperazin-1-yl}methyl)benzoyl]-2-oxo-1-[(1s,3s)-3-(piperidin-1-yl)cyclobutyl]spiro[indole-3,4′-piperidin]-6-yl}-3-isopropylimidazo[4,5-c]pyridin-4-yl)amino]-4-fluoro-N-isopropyl-2-methylbenzamide]	45 to 65
Cc1cc(F)c(Nc2nc(-c3ccc4c(c3)N([C@H]3C[C@@H](N5CCCCC5)C3)C(=O)C43CCN(C(=O)CN4CCN(c5ccc(CC(=O)NCCNc6cccc7c6C(=O)N(C6CCC(=O)NC6=O)C7=O)cc5)CC4)CC3)cc3ncn(C(C)C)c23)cc1C(=O)NC(C)C (stereo partly drawn) [Example 44, 5-({6-[1′-(2-{4-[4-({[2-({2-[2,6-dioxopiperidin-3-yl]-1,3-dioxo-2,3-dihydro-1H-isoindol-4-yl}amino)ethyl]carbamoyl}methyl)phenyl]piperazin-1-yl}acetyl)-2-oxo-1-[(1s,3s)-3-(piperidin-1-yl)cyclobutyl]-1,2-dihydrospiro[indole-3,4′-piperidin]-6-yl]-3-(propan-2-yl)-3H-imidazo[4,5-c]pyridin-4-yl}amino)-4-fluoro-2-methyl-N-(propan-2-yl)benzamide]	45 to 65
Cc1cc(F)c(Nc2nc(-c3ccc4c(c3)N([C@H]3C[C@@H](N5CCCCC5)C3)C(=O)C43CCN(C(=O)c4ccc(C(=O)N5CCN(c6ccc7c(c6)C(=O)N(C6CCC(=O)NC6=O)C7=O)CC5)cc4Cl)CC3)cc3ncn(C(C)C)c23)cc1C(=O)NC(C)C (stereo partly drawn) [Example 71, 5-[(6-{1′-[2-chloro-4-(4-{2-[2,6-dioxopiperidin-3-yl]-1,3-dioxo-2,3-dihydro-1H-isoindol-5-yl}piperazine-1-carbonyl)benzoyl]-2-oxo-1-[(1s,3s)-3-(piperidin-1-yl)cyclobutyl]-1,2-dihydrospiro[indole-3,4′-piperidin]-6-yl}-3-(propan-2-yl)-3H-imidazo[4,5-c]pyridin-4-yl)amino]-4-fluoro-2-methyl-N-(propan-2-yl)benzamide]	> 65

Reference: US11739101B2, “Bifunctional degraders of hematopoietic progenitor kinase and therapeutic uses thereof” (Nurix Therapeutics, Inc., priority 2020, dated 2023)
